In patent publication US20260242391A1 (priority 2023, published 2026) one finds EC50 and IC50 data, which are given here for 22 compounds.

One data set relates to HL-60. Put plainly: HL-60 differentiation potency. Format: cell-based. Conditions: Homo sapiens.
A short description of another data set: in vitro. The note with it: human.

For orientation: EC50 means the midpoint of the concentration-response curve. Higher therefore signals a less potent agent. For orientation: IC50 means the concentration that gives 50% inhibition. Read a high IC50 as a need for much substance.

In the data set on HL-60, `C[C@H]1[C@H](OCC2CCC(C(=O)O)CC2)O[C@@H]2O[C@@]3(C)CC[C@H]4[C@H](C)CC[C@@H]1[C@@]24OO3` (stereo partly drawn) [Compound 42, (1S,4s)-4-((((3R,5aS,6R, 8aS,9R,10R,12R, 12aR)-3,6,9-trimethyldeca-hydro-12H-3,12-epoxy[1,2]dioxepino[4,3-i]isochromen-10-yl)oxy)methyl) cyclohexane-1-carboxylic acid] displayed an EC50 of 782 nM. The compound also yielded an IC50 in “in vitro” greater than 20000 nM.

`C[C@H]1[C@@H](OCCCc2ccc(C(=O)O)cc2)O[C@@H]2O[C@@]3(C)CC[C@H]4[C@H](C)CC[C@@H]1[C@@]24OO3` [Compound 10, 4-(3-(((3R,5aS,6R, 8aS,9R,10S,12R, 12aR)-3,6,9-trimethyldeca-hydro-12H-3,12-epoxy[1,2]dioxepino[4,3-i]isochromen-10-yl)oxy)propyl) benzoic acid] had an EC50 with HL-60 of 63.8 nM. The IC50 in the data set “in vitro” is greater than 10000 nM.

In the data set on HL-60, `C[C@H]1[C@@H](Oc2ccc(C(C)(C)C(=O)O)cc2)O[C@@H]2O[C@@]3(C)CC[C@H]4[C@H](C)CC[C@@H]1[C@@]24OO3` [Compound 126, 2-methyl-2-(4-(((3R,5aS,6R,8aS, 9R,10S,12R, 12aR)-3,6,9-trimethyldeca-hydro-12H-3,12-epoxy[1,2]dioxepino[4,3-i]isochromen-10-yl)oxy)phenyl) propanoic acid] returned a 50% effective concentration (EC50) of 15.6 nM. The compound also gave an IC50 in “in vitro” of 5500 nM.

For `C[C@H]1[C@H](NCCCS(C)(=O)=O)O[C@@H]2O[C@@]3(C)CC[C@H]4[C@H](C)CC[C@@H]1[C@@]24OO3` [Compound 100, (3R,5aS,6R,8aS, 9R,10R,12R, 12aR)-3,6,9-trimethyl-N-(3-(methylsulfonyl)propyl)deca-hydro-12H-3,12-epoxy[1,2] dioxepino[4,3-i] isochromen-10-amine], in the data set with HL-60, it took 498 nM to reach a half-maximal effect (EC50). The same compound displayed an IC50 in “in vitro” of 535 nM.

Take `C[C@H]1[C@H](OCC(=O)N2CC[C@@H](C(=O)O)C2)O[C@@H]2O[C@@]3(C)CC[C@H]4[C@H](C)CC[C@@H]1[C@@]24OO3` [Compound 163, (R)-1-(2-(((3R,5aS,6R,8aS, 9R,10R,12R, 12aR)-3,6,9-trimethyldeca-hydro-12H-3,12-epoxy[1,2]dioxepino[4,3-i]isochromen-10-yl)oxy)acetyl) pyrrolidine-3-carboxylic acid]: in the data set with HL-60, the EC50 is greater than 20000 nM. Also, the IC50 in “in vitro” is greater than 20000 nM.

For the compound `C[C@H]1[C@@H](Oc2ccc(CC(=O)O)cc2Cl)O[C@@H]2O[C@@]3(C)CC[C@H]4[C@H](C)CC[C@@H]1[C@@]24OO3` [Compound 16, 2-(3-chloro-4-(((3R,5aS,6R,8aS, 9R,10S,12R, 12aR)-3,6,9-trimethyldeca-hydro-12H-3,12-epoxy[1,2]dioxepino[4,3-i]isochromen-10-yl)oxy)phenyl) acetic acid], a half-maximal effect in the data set with HL-60 (EC50) was put at 94.8 nM. Moreover, in “in vitro”, the IC50 is greater than 10000 nM.

`C[C@H]1[C@@H](Oc2ccc(C(C)(C)C(=O)O)cc2Cl)O[C@@H]2O[C@@]3(C)CC[C@H]4[C@H](C)CC[C@@H]1[C@@]24OO3` [Compound 180, 2-(3-chloro-4-(((3R,5aS,6R,8aS, 9R,10S,12R, 12aR)-3,6,9-trimethyldeca-hydro-12H-3,12-epoxy[1,2]dioxepino[4,3-i]isochromen-10-yl)oxy)phenyl)-2-methylpropanoic acid]: a half-maximal effect in the data set on HL-60 (EC50) was put at 40.2 nM. Further, the 50% inhibitory concentration (IC50) in “in vitro” was 160 nM.

On to `C[C@H]1[C@H](NCCC(N)=O)O[C@@H]2O[C@@]3(C)CC[C@H]4[C@H](C)CC[C@@H]1[C@@]24OO3` [Compound 96, 3-(((3R,5aS,6R,8aS, 9R,10R,12R, 12aR)-3,6,9-trimethyldeca-hydro-12H-3,12-epoxy[1,2]dioxepino[4,3-i]isochromen-10-yl)amino) propanamide], for which the 50% effective concentration (EC50) with HL-60 stood at 1700 nM. Also, in “in vitro”, half-maximal inhibition (IC50) was put at 1980 nM.

In turn, `C[C@H]1[C@@H](OCc2ccc(S(N)(=O)=O)cc2)O[C@@H]2O[C@@]3(C)CC[C@H]4[C@H](C)CC[C@@H]1[C@@]24OO3` [Compound 18, 4-((((3R,5aS,6R, 8aS,9R,10S,12R, 12aR)-3,6,9-trimethyldeca-hydro-12H-3,12-epoxy[1,2]dioxepino[4,3-i]isochromen-10-yl)oxy)methyl) benzene-sulfonamide] gave an EC50 with HL-60 of 99 nM. Further, in “in vitro”, inhibition was half-maximal at 2250 nM (IC50).

`C[C@H]1[C@H](OCC#Cc2ccc(C(=O)O)cc2F)O[C@@H]2O[C@@]3(C)CC[C@H]4[C@H](C)CC[C@@H]1[C@@]24OO3` [Compound 166, 3-fluoro-4-(3-(((3R,5aS,6R,8aS, 9R,10R,12R, 12aR)-3,6,9-trimethyldeca-hydro-12H-3,12-epoxy[1,2]dioxepino[4,3-i]isochromen-10-yl)oxy)prop-1-yn-1-yl)benzoic acid] showed a 50% effective concentration (EC50) with HL-60 of 66.9 nM. Moreover, the concentration for half-maximal inhibition (IC50) in “in vitro” came out at 1800 nM.

The compound `C[C@H]1[C@H](OCC(=O)N2C[C@H](F)C[C@H]2C(=O)O)O[C@@H]2O[C@@]3(C)CC[C@H]4[C@H](C)CC[C@@H]1[C@@]24OO3` [Compound 159, (2S,4R)-4-fluoro-1-(2-(((3R,5aS,6R,8aS, 9R,10R,12R, 12aR)-3,6,9-trimethyldeca-hydro-12H-3,12-epoxy[1,2]dioxepino[4,3-i]isochromen-10-yl)oxy)acetyl) pyrrolidine-2-carboxylic acid] returned an EC50 with HL-60 greater than 20000 nM. In addition, in the data set “in vitro”, the IC50 was greater than 20000 nM.

On to `C[C@H]1[C@H](N2CCC(C(=O)NC3COC3)CC2)O[C@@H]2O[C@@]3(C)CC[C@H]4[C@H](C)CC[C@@H]1[C@@]24OO3` [Compound 60, N-(oxetan-3-yl)-1-((3R,5aS, 6R,8aS,9R,10R, 12R,12aR)-3,6,9-trimethyldeca-hydro-12H-3,12-epoxy[1,2]dioxepino[4,3-i]isochromen-10-yl)piperidine-4-carboxamide], for which, in the data set on HL-60, a half-maximal effect (EC50) was put at 11200 nM. In addition, the IC50 in the data set “in vitro” was determined as 11800 nM.

For `C[C@H]1[C@@H](CCN2CCC(C(=O)O)CC2)O[C@@H]2O[C@@]3(C)CC[C@H]4[C@H](C)CC[C@@H]1[C@@]24OO3` [Compound 66, 1-(2-((3R,5aS,6R, 8aS,9R,10R,12R, 12aR)-3,6,9-trimethyldeca-hydro-12H-3,12-epoxy[1,2]dioxepino[4,3-i]isochromen-10-yl)ethyl) piperidine-4-carboxylic acid], in the data set on HL-60, the EC50 was greater than 20000 nM. In “in vitro”, the IC50 was greater than 20000 nM.

The compound `C[C@H]1[C@H](OCc2cc(C(=O)O)ccc2Cl)O[C@@H]2O[C@@]3(C)CC[C@H]4[C@H](C)CC[C@@H]1[C@@]24OO3` [Compound 168, 4-chloro-3-((((3R,5aS,6R,8aS, 9R,10R,12R, 12aR)-3,6,9-trimethyldeca-hydro-12H-3,12-epoxy[1,2]dioxepino[4,3-i]isochromen-10-yl)oxy)methyl) benzoic acid] displayed an EC50 in the data set on HL-60 of 45.3 nM. Further, in “in vitro”, 6500 nM corresponded to half-maximal inhibition (IC50).

Compound `C[C@H]1[C@H](NC2CS(=O)(=O)C2)O[C@@H]2O[C@@]3(C)CC[C@H]4[C@H](C)CC[C@@H]1[C@@]24OO3` [Compound 52, 3-(((3R,5aS,6R,8aS, 9R,10R,12R, 12aR)-3,6,9-trimethyldeca-hydro-12H-3,12-epoxy[1,2]dioxepino[4,3-i]isochromen-10-yl)amino) thietane 1,1-dioxide] had an EC50 with HL-60 of 2450 nM. In addition, the half-maximal inhibitory concentration (IC50) in the data set “in vitro” was 3550 nM.

With `C[C@H]1[C@H](OCC(=O)N2CCC(C(=O)O)CC2)O[C@@H]2O[C@@]3(C)CC[C@H]4[C@H](C)CC[C@@H]1[C@@]24OO3` [Compound 164, 1-(2-(((3R,5aS,6R,8aS, 9R,10R,12R, 12aR)-3,6,9-trimethyldeca-hydro-12H-3,12-epoxy[1,2]dioxepino[4,3-i]isochromen-10-yl)oxy)acetyl) piperidine-4-carboxylic acid], the EC50 in the data set with HL-60 is greater than 20000 nM. For the same compound, the IC50 in “in vitro” was greater than 20000 nM.

With `C[C@H]1[C@@H](OC[C@@H]2CCC[C@H](C(=O)O)C2)O[C@@H]2O[C@@]3(C)CC[C@H]4[C@H](C)CC[C@@H]1[C@@]24OO3` [Compound 138, (1S,3R)-3-((((3R,5aS,6R, 8aS,9R,10S,12R, 12aR)-3,6,9-trimethyldeca-hydro-12H-3,12-epoxy[1,2]dioxepino[4,3-i]isochromen-10-yl)oxy)methyl) cyclohexane-1-carboxylic acid], the EC50 in the data set with HL-60 was 120 nM. In addition, the 50% inhibitory concentration (IC50) in the data set “in vitro” was greater than 20000 nM.

In the data set on HL-60, `C[C@H]1[C@H](OCc2ccc(C(=O)O)o2)O[C@@H]2O[C@@]3(C)CC[C@H]4[C@H](C)CC[C@@H]1[C@@]24OO3` [Compound 61, 5-((((3R,5aS,6R, 8aS,9R,10R,12R, 12aR)-3,6,9-trimethyldeca-hydro-12H-3,12-epoxy[1,2]dioxepino[4,3-i]isochromen-10-yl)oxy)methyl) furan-2-carboxylic acid] had a concentration giving a half-maximal response (EC50) of 13400 nM. The same compound gave an IC50 in the data set “in vitro” greater than 20000 nM.

In the data set on HL-60, `C[C@H]1[C@H](N(C)C23CC(C(=O)O)(C2)C3)O[C@@H]2O[C@@]3(C)CC[C@H]4[C@H](C)CC[C@@H]1[C@@]24OO3` [Compound 103, 3-(methyl((3R,5aS, 6R,8aS,9R,10R, 12R,12aR)-3,6,9-trimethyldeca-hydro-12H-3,12-epoxy[1,2]dioxepino[4,3-i]isochromen-10-yl)amino)bicyclo [1.1.1]pentane-1-carboxylic acid] showed a concentration for a half-maximal effect (EC50) greater than 20000 nM. Further, the IC50 in the data set “in vitro” is greater than 20000 nM.

The compound `C[C@H]1[C@@H](O[C@H]2CC[C@@H](CC(=O)O)C2)O[C@@H]2O[C@@]3(C)CC[C@H]4[C@H](C)CC[C@@H]1[C@@]24OO3` [Compound 130, 2-((1R,3S)-3-(((3R,5aS,6R,8aS, 9R,10S,12R, 12aR)-3,6,9-trimethyldeca-hydro-12H-3,12-epoxy[1,2]dioxepino[4,3-i]isochromen-10-yl)oxy)cyclo-pentyl)acetic acid] had a concentration giving a half-maximal response (EC50) with HL-60 of 241 nM. The IC50 in “in vitro” was greater than 20000 nM.

On to `C[C@H]1[C@H](N(C)Cc2ccc(C(=O)O)cc2)O[C@@H]2O[C@@]3(C)CC[C@H]4[C@H](C)CC[C@@H]1[C@@]24OO3` [Compound 102, 4-((methyl((3R, 5aS,6R,8aS,9R, 10R,12R,12aR)-3,6,9-trimethyldeca-hydro-12H-3,12-epoxy[1,2]dioxepino[4,3-i]isochromen-10-yl)amino)methyl) benzoic acid], for which the concentration giving a half-maximal response (EC50) in the data set with HL-60 is greater than 20000 nM. Moreover, the IC50 in “in vitro” was greater than 20000 nM.

In the case of `C[C@H]1[C@@H](OCC2CCC(F)(F)CC2)O[C@@H]2O[C@@]3(C)CC[C@H]4[C@H](C)CC[C@@H]1[C@@]24OO3` [Compound 106, (3R,5aS,6R,8aS, 9R,10S,12R, 12aR)-10-((4,4-difluorocyclo-hexyl)methoxy)-3,6,9-trimethyldeca-hydro-12H-3,12-epoxy[1,2] dioxepino[4,3-i] isochromene], the response in the data set on HL-60 was half-maximal at 20.4 nM (EC50). The compound further displayed an IC50 in the data set “in vitro” of 100 nM.
